Here are results for 1 compound from ChEMBL document CHEMBL3867466, “Synthesis and biological evaluation of novel 2,4,5-triarylimidazole-1,2,3-triazole derivatives via click chemistry as α-glucosidase inhibitors” (Bioorg Med Chem Lett, 2016).

The target in the assay is Alpha-glucosidase MAL12 (Saccharomyces cerevisiae) (UniProt P53341). Briefly: Potency index, ratio of acarbose IC50 to compound IC50 for bakers yeast alpha-glucosidase.
Chain of Alpha-glucosidase MAL12 (Saccharomyces cerevisiae) (P53341 whole entry, looked up): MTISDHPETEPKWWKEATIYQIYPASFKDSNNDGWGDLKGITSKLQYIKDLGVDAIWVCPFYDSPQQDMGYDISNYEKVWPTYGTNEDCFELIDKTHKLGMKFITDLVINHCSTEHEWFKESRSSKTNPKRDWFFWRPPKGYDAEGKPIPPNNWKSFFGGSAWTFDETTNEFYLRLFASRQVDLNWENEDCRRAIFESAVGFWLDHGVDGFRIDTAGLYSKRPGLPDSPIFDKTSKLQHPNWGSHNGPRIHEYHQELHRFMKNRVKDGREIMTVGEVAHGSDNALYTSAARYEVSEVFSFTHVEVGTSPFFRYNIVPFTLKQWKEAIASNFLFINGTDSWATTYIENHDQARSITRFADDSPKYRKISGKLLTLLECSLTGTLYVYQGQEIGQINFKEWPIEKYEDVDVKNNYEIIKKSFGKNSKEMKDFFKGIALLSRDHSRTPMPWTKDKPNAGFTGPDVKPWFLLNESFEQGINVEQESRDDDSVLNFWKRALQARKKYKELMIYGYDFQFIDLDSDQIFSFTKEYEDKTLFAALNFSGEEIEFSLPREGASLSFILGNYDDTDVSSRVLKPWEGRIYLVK

Regarding `CCOc1ccccc1NC(=O)Cn1cc(Cn2c(-c3cccc(Br)c3)nc(-c3ccccc3)c2-c2ccccc2)nn1`, the Ratio IC50 came to 52.
